Series [1] deals with T1, USP19 (Homo sapiens, UniProt O94966).
T1 sequence (O94966 1-1318): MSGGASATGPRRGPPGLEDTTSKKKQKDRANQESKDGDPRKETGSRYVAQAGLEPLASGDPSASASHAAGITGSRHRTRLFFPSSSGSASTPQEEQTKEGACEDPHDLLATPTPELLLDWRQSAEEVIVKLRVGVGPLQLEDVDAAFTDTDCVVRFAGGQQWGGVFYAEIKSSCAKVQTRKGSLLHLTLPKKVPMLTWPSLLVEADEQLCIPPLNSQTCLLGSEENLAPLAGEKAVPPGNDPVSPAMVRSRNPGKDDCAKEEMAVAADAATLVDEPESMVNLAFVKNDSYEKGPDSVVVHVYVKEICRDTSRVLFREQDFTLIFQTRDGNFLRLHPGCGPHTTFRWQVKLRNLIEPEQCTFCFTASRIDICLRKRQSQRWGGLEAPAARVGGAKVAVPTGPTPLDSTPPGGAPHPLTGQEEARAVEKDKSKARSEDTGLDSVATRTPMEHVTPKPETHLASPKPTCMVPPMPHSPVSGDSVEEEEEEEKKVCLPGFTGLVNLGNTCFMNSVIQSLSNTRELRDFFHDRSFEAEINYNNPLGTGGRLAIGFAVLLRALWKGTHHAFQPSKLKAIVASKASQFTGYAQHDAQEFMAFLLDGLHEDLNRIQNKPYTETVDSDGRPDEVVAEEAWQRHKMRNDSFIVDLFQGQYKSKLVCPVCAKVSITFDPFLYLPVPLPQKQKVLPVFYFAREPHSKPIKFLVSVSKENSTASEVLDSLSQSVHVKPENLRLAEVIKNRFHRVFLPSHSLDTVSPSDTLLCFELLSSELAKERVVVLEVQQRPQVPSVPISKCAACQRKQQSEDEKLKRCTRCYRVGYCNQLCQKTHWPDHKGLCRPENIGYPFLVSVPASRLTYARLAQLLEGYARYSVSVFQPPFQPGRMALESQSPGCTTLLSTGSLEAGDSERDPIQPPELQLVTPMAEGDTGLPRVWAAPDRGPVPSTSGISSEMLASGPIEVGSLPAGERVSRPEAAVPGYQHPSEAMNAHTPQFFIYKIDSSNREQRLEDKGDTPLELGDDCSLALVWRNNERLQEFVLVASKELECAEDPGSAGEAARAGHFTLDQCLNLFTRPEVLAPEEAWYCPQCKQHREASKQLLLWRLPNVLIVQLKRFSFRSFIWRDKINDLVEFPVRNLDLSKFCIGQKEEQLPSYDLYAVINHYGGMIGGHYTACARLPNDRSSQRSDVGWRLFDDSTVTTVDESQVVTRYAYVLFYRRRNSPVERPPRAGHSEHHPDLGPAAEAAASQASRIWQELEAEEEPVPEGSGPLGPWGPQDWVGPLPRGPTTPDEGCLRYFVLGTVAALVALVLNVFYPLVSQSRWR
Put plainly: Cell target engagement, breast cancer cell line. Type of series: cell-based. The protocol: Cells from a breast cancer cell line, a neuroblastoma cell line and a mouse skeletal muscle cell line were treated with a USP19 inhibitor compound (ADC-141, corresponding to Example 212 provided herein) for 2 hrs, lysed (lysis buffer: 50 mM Tris pH 7.4; 150 mM NaCl; 5 mM MgCl2; 0.5 mM EDTA; 0.5% NP40; 10% Glycerol; 2 mM DTT) and Ubiquitin-propargylamine (Ub-PA; UbiQ) or Ubiquitin-vinyl methyl ester (Ub-VME; Almac Sciences Scotland Limited) was then added. Samples were analysed by western blotting probing for USP19 (EC50 determined by densitometry).

In series [2] the test system is diet-induced obese (DIO) mouse. Put plainly: Oral glucose tolerance test (OGTT) in diet-induced obese mice. The class given is in vivo. The protocol: To assess obesity and insulin resistance, a diet-induced obesity mouse model was used.
Male C57BL6/J mice were continuously provided with high-fat diet (D12451, 45% kcal as fat; Research Diets, New Jersey, USA) and filtered tap water ad libitum for the duration of the study. From day 0, mice were administered vehicle i.p. BID, USP19 inhibitor (ADC-141) i.p. BID at 5 mg/kg or 25 mg/kg, or positive control liraglutide 0.1 mg/kg s.c. BID. Mice were allocated to treatment groups to balance the groups on the basis of body weight, food and water intake prior to the start of treatment.
Body weight was measured daily. On Day 13, body composition was assessed by DEXA. On Day 15, fasting glucose and insulin levels were measured before and during an oral glucose tolerance test (OGTT) to assess improvements in glucose control. The OGTT was performed following an overnight fast. […] An OGTT was performed the following morning (approx. 16h post fast). Mice were dosed with vehicle or test compound (starting at 08.45) to a timed schedule 30 minutes prior to the administration of the glucose challenge (2.0 g/kg po). Blood samples were taken immediately prior to dosing (B1), immediately prior to glucose administration (B2) and 15, 30, 60 and 120 minutes after glucose administration.

Regarding `C[C@H](CC1CCCCC1)C(=O)N1CC[C@@](O)(Cn2cc(C(=O)N3CCNCC3)c(-c3ccccc3)cc2=O)C2(CCCC2)C1` [ADC-141, 1-(((S)-7-((R)-3-Cyclohexyl-2-methylpropanoyl)-10-hydroxy-7-azaspiro[4.5]decan-10-yl)methyl)-4-phenyl-5-(piperazine-1-carbonyl)pyridin-2(1H)-one], in series [1], the cell permeability entry is “good cell permeability”. The “EC50 (USP19 target engagement, densitometry)” value in series [1] (2 hrs treatment, Ub-PA or Ub-VME probe, western blot) is “low nanomolar”. For the same compound, in series [2] (0-60 and 0-120 minutes, 25 mg/kg ip bid), the “insulin AUC” value is “reduced”. For the same compound, the “glucose AUCB2” value in series [2] (0-120 minutes only, 25 mg/kg ip bid, vs vehicle) is “significantly reduced”. In series [2] (25 mg/kg ip bid, vs vehicle), the “glucose AUC” value is reported as “significantly reduced”. Besides, in series [2] (30, 60 and 120 minutes post-glucose, 25 mg/kg ip bid), the plasma insulin result was “reduced”. The plasma glucose result in series [2] (all time points pre- and post-glucose, 25 mg/kg ip bid, vs vehicle) is recorded as “significantly reduced”. Also, the fasting plasma glucose entry in series [2] (following 2 weeks of treatment) was “effective at decreasing”.

Source of the values: patent US20220016115A1, “USP19 INHIBITORS FOR USE IN THERAPY” (ALMAC DISCOVERY LIMITED, priority 2018, published 2022).
